Broadly, the EC50 is the midpoint of the concentration-response curve.

The results in this text go back to patent US8933075B2, “Compounds useful as antiviral agents, compositions, and methods of use” (priority 2010, dated 2015).

Where only a bound is given, the exact number is not on record here.

In test [1] the test system is A/Udorn/72 (H3N2) virus. The test can be described thus: Plaque assay in MDCK cells: EC50 by reduction of plaque number. The class given is cell-based, influenza virus. The settings on record: MDCK.
The subject of test [2] is pseudoHIV particles. The test can be described thus: HIV pseudovirus assay in X4 cells (luciferase). The note with it: Human immunodeficiency virus 1, read-out: HIV EC50. It counts as cell-based, HIV-1. The procedure: A plasmid coding the HIV-1 genome, deleting the envelope protein gene and with a luciferase gene inserted, and a plasmid coding the envelope protein gene were cotransfected into 293T cells. After 48 hr, the supernatant containing pseudoHlV particles was collected for transducing assay. In 96 well plates, X4 cells were plated and incubated till confluent. The pseudoHlV particles were incubated with various concentrations of inhibitor compounds for one hour in room temperature. The particles were then used for tranducing X4 cells. The transduced X4 cells were lysed after 48 hr and the luciferase activity was measured in a luminometer.

With `COc1cc(O)cc(-c2ccc(/C=C3\SC(=S)N(C4CC5CCC4C5)C3=O)o2)c1` (stereo not shown) [Compound 17], the concentration giving a half-maximal response (EC50) in test [1] and in test [2] was less than 100 nM each time.

Regarding `COc1cc(OC)cc(-c2ccc(/C=C3\SC(=S)N(C4CC5CCC4C5)C3=O)o2)c1` (stereo not shown) [Compound 19], the 50% effective concentration (EC50) in test [1] and in test [2] was less than 100 nM each time.

Turning to `COc1cc(OC)cc(-c2ccc(/C=C3\SC(=S)N(C4C5CC6CC(C5)CC4C6)C3=O)o2)c1` (stereo not shown) [Compound 20], the EC50 in test [1] and in test [2] was less than 100 nM each time.

For the compound `CCOC(=O)COc1cc(-c2ccc(/C=C3\SC(=S)N(C4C5CC6CC(C5)CC4C6)C3=O)o2)ccc1OC` (stereo not shown) [Compound 21], the EC50 in test [1] and in test [2] was less than 100 nM each time.

On to `CCOC(=O)COc1cc(-c2ccc(/C=C3\SC(=S)N(C4CC5CCC4C5)C3=O)o2)ccc1OC` (stereo not shown) [Compound 22], for which the concentration giving a half-maximal response (EC50) in test [1] and in test [2] was less than 100 nM in each case.

As to `COc1ccc(-c2ccc(/C=C3\SC(=S)N(C4C5CC6CC(C5)CC4C6)C3=O)o2)cc1O` (stereo not shown) [Compound 23], the EC50 in test [1] and in test [2] was less than 100 nM in each case.

On to `CCOC(=O)COc1cc(-c2ccc(/C=C3\SC(=S)N(C4CC5CCC4C5)C3=O)o2)cc(OC)c1OC` (stereo not shown) [Compound 29], for which the EC50 in test [1] and in test [2] was less than 100 nM each time.

With `CCOC(=O)COc1cc(-c2ccc(/C=C3\SC(=S)N(C4C5CC6CC(C5)CC4C6)C3=O)o2)cc(OC)c1OC` (stereo not shown) [Compound 30], the EC50 in test [1] and in test [2] was less than 100 nM each time.

On to `COC(=O)c1cc(-c2ccc(/C=C3\SC(=S)N(C4CC5CCC4C5)C3=O)o2)cc(OC)c1OC` (stereo not shown) [Compound 31], for which the EC50 in test [1] and in test [2] was less than 100 nM each time.

In the case of `COC(=O)c1cc(-c2ccc(/C=C3\SC(=S)N(C4C5CC6CC(C5)CC4C6)C3=O)o2)cc(OC)c1OC` (stereo not shown) [Compound 32], the EC50 in test [1] and in test [2] was less than 100 nM throughout.

With `COc1ccc(-c2ccc(/C=C3\SC(=S)N(C4C5CC6CC(C5)CC4C6)C3=O)o2)cc1OCC(=O)O` (stereo not shown) [Compound 33], the concentration giving a half-maximal response (EC50) in test [1] and in test [2] was less than 100 nM in each case.

On to `COc1cc(OCC(=O)O)cc(-c2ccc(/C=C3\SC(=S)N(C4CC5CCC4C5)C3=O)o2)c1` (stereo not shown) [Compound 37], for which the EC50 in test [1] and in test [2] was less than 100 nM each time.

For `COc1cc(OCC(=O)N[C@@H](Cc2ccccc2)C(=O)O)cc(-c2ccc(/C=C3\SC(=S)N(C4CC5CCC4C5)C3=O)o2)c1` (stereo partly shown) [Compound 83], the 50% effective concentration (EC50) in test [1] and in test [2] was less than 100 nM throughout.

As for `COc1cc(OCC(=O)N2CCC[C@H]2C(=O)O)cc(-c2ccc(/C=C3\SC(=S)N(C4CC5CCC4C5)C3=O)o2)c1` (stereo partly shown) [Compound 84], the EC50 in test [1] and in test [2] was less than 100 nM each time.

Turning to `COc1ccc(-c2ccc(/C=C3\SC(=S)N(C4CC5CCC4C5)C3=O)o2)cc1C(=O)N[C@@H](Cc1ccc(O)cc1)C(=O)O` (stereo partly shown) [Compound 86], the EC50 in test [1] and in test [2] was less than 100 nM each time.

Turning to `O=C1/C(=C/c2oc(-c3ccccc3)cc2CO)SC(=S)N1C1C2CC3CC(C2)CC1C3` (stereo not shown) [Compound 92], the values for the EC50 in test [1] and in test [2] were less than 100 nM and 100 to 250 nM, respectively.

In the case of `COc1cc(OC)cc(-c2cc(CCCO)c(/C=C3\SC(=S)N(C4C5CC6CC(C5)CC4C6)C3=O)o2)c1` (stereo not shown) [Compound 95], the concentration giving a half-maximal response (EC50) in test [1] and in test [2] was less than 100 nM in each case.

In the case of `O=C1/C(=C/c2oc(-c3ccc(Cl)cc3)cc2CCCO)SC(=S)N1C1CC2CCC1C2` (stereo not shown) [Compound 99], the half-maximal effective concentration (EC50) in test [1] and in test [2] was less than 100 nM in each case.

`COc1cc(O)cc(-c2cc(CCCO)c(/C=C3\SC(=S)N(C4CC5CCC4C5)C3=O)o2)c1` (stereo not shown) [Compound 101]: the EC50 in test [1] and in test [2] was less than 100 nM in each case.

With `COc1cc(O)cc(-c2cc(CCCO)c(/C=C3\SC(=S)N(C4C5CC6CC(C5)CC4C6)C3=O)o2)c1` (stereo not shown) [Compound 102], the concentration giving a half-maximal response (EC50) in test [1] and in test [2] was less than 100 nM each time.

For the compound `O=C1/C(=C/c2oc(-c3ccc(F)cc3)cc2CCCO)SC(=S)N1C1C2CC3CC(C2)CC1C3` (stereo not shown) [Compound 103], the EC50 in test [1] and in test [2] was less than 100 nM in each case.

For the compound `O=C1/C(=C/c2oc(-c3ccc(F)cc3)cc2CCCO)SC(=S)N1C1CC2CCC1C2` (stereo not shown) [Compound 104], the EC50 in test [1] and in test [2] was less than 100 nM in each case.

As to `COc1cc(OC)cc(-c2cc(CCCCO)c(/C=C3\SC(=S)N(C4CC5CCC4C5)C3=O)o2)c1` (stereo not shown) [Compound 113], the 50% effective concentration (EC50) in test [1] and in test [2] was less than 100 nM throughout.

Consider `COc1cc(OC)cc(-c2cc(CCCCO)c(/C=C3\SC(=S)N(C4C5CC6CC(C5)CC4C6)C3=O)o2)c1` (stereo not shown) [Compound 114], for which the EC50 in test [1] and in test [2] was less than 100 nM throughout.

On to `COc1cc(OC)cc(-c2cc(CCCN)c(/C=C3\SC(=S)N(C4CC5CCC4C5)C3=O)o2)c1` (stereo not shown) [Compound 120], for which the EC50 in test [1] and in test [2] was less than 100 nM each time.

As for `COc1cc(OC)cc(-c2cc(CCCN)c(/C=C3\SC(=S)N(C4C5CC6CC(C5)CC4C6)C3=O)o2)c1` (stereo not shown) [Compound 121], the EC50 in test [1] and in test [2] was less than 100 nM throughout.

Turning to `COc1cc(O)cc(-c2cc(CCCN)c(/C=C3\SC(=S)N(C4CC5CCC4C5)C3=O)o2)c1` (stereo not shown) [Compound 122], the concentration for a half-maximal effect (EC50) in test [1] and in test [2] was less than 100 nM throughout.

In the case of `COc1cc(O)cc(-c2cc(CCCN)c(/C=C3\SC(=S)N(C4C5CC6CC(C5)CC4C6)C3=O)o2)c1` (stereo not shown) [Compound 123], the half-maximal effective concentration (EC50) in test [1] and in test [2] was less than 100 nM in each case.

Take `NCCCc1cc(-c2ccc(Cl)cc2)oc1/C=C1\SC(=S)N(C2CC3CCC2C3)C1=O` (stereo not shown) [Compound 124]: the half-maximal effective concentration (EC50) in test [1] and in test [2] was less than 100 nM each time.

For the compound `NCCCc1cc(-c2ccc(Cl)cc2)oc1/C=C1\SC(=S)N(C2C3CC4CC(C3)CC2C4)C1=O` (stereo not shown) [Compound 125], the concentration giving a half-maximal response (EC50) in test [1] and in test [2] was less than 100 nM in each case.

Regarding `COc1cc(OC)cc(-c2cc(CCC(=O)O)c(/C=C3\SC(=S)N(C4C5CC6CC(C5)CC4C6)C3=O)o2)c1` (stereo not shown) [Compound 129], the concentration for a half-maximal effect (EC50) in test [1] and in test [2] was less than 100 nM in each case.

For `COc1cc(OC)cc(-c2cc(/C=C/C(=O)O)c(/C=C3\SC(=S)N(C4CC5CCC4C5)C3=O)o2)c1` (stereo not shown) [Compound 130], the half-maximal effective concentration (EC50) in test [1] and in test [2] was less than 100 nM each time.

Regarding `COc1cc(O)cc(-c2cc(CCCC(C(=O)O)C(=O)O)c(/C=C3\SC(=S)N(C4CC5CCC4C5)C3=O)o2)c1` (stereo not shown) [Compound 137], the EC50 in test [2] is less than 100 nM.

As to `COc1cc(OC)cc(-c2cc(CCCOC(=O)[C@H](CC(N)=O)NC(=O)OC(C)(C)C)c(/C=C3\SC(=S)N(C4CC5CCC4C5)C3=O)o2)c1` (stereo partly shown) [Compound 138], the half-maximal effective concentration (EC50) in test [1] and in test [2] was less than 100 nM each time.

`COc1cc(OC)cc(-c2cc(CCCOC(=O)[C@@H](N)Cc3ccc(O)cc3)c(/C=C3\SC(=S)N(C4CC5CCC4C5)C3=O)o2)c1` (stereo partly shown) [Compound 151]: the EC50 in test [1] and in test [2] was less than 100 nM in each case.

In the case of `COc1cc(OC)cc(-c2cc(CCCNC(=O)[C@H](CC(N)=O)NC(=O)OC(C)(C)C)c(/C=C3\SC(=S)N(C4CC5CCC4C5)C3=O)o2)c1` (stereo partly shown) [Compound 156], the half-maximal effective concentration (EC50) in test [1] and in test [2] was less than 100 nM in each case.

Turning to `COc1cc(OC)cc(-c2cc(CCCNC(=O)[C@H](Cc3ccccc3)NC(=O)OC(C)(C)C)c(/C=C3\SC(=S)N(C4CC5CCC4C5)C3=O)o2)c1` (stereo partly shown) [Compound 157], the half-maximal effective concentration (EC50) in test [1] and in test [2] was less than 100 nM throughout.

Take `COc1cc(OC)cc(-c2cc(CCCNC(=O)[C@@H](N)Cc3ccc(O)cc3)c(/C=C3\SC(=S)N(C4CC5CCC4C5)C3=O)o2)c1` (stereo partly shown) [Compound 167]: the half-maximal effective concentration (EC50) in test [1] and in test [2] was less than 100 nM in each case.

On to `COc1cc(OC)cc(-c2cc(CCCNC(=O)[C@@H](N)CC(N)=O)c(/C=C3\SC(=S)N(C4CC5CCC4C5)C3=O)o2)c1` (stereo partly shown) [Compound 168], for which the half-maximal effective concentration (EC50) in test [1] and in test [2] was less than 100 nM each time.

With `COc1cc(OC)cc(-c2cc(CCCNC(=O)[C@@H](N)c3ccccc3)c(/C=C3\SC(=S)N(C4CC5CCC4C5)C3=O)o2)c1` (stereo partly shown) [Compound 170], the EC50 in test [1] and in test [2] was less than 100 nM throughout.

As for `COc1cc(OC)cc(-c2cc(CCCNC(=O)[C@@H](N)Cc3ccccc3)c(/C=C3\SC(=S)N(C4CC5CCC4C5)C3=O)o2)c1` (stereo partly shown) [Compound 171], the 50% effective concentration (EC50) in test [1] and in test [2] was less than 100 nM each time.

With `COc1cc(O)cc(-c2cc(CCCNC(=O)[C@@H](N)CC(N)=O)c(/C=C3\SC(=S)N(C4CC5CCC4C5)C3=O)o2)c1` (stereo partly shown) [Compound 174], the EC50 in test [1] and in test [2] was less than 100 nM in each case.

As for `O=C1/C(=C/c2oc(-c3ccc(Cl)cc3)cc2CCCN2CCNCC2)SC(=S)N1C1CC2CCC1C2` (stereo not shown) [Compound 186], the concentration giving a half-maximal response (EC50) in test [1] and in test [2] was less than 100 nM each time.

In the case of `COc1cc(O)cc(-c2cc(CCCNC(=N)N)c(/C=C3\SC(=S)N(C4CC5CCC4C5)C3=O)o2)c1` (stereo not shown) [Compound 194], the 50% effective concentration (EC50) in test [1] and in test [2] was less than 100 nM in each case.

As to `COc1cc(OC)cc(-c2cc(CCCNC(=N)N)c(/C=C3\SC(=S)N(C4CC5CCC4C5)C3=O)o2)c1` (stereo not shown) [Compound 195], the EC50 in test [1] and in test [2] was less than 100 nM throughout.

For the compound `COc1cc(OC)cc(-c2cc(CCCn3nnc(CO)c3CO)c(/C=C3\SC(=S)N(C4CC5CCC4C5)C3=O)o2)c1` (stereo not shown) [Compound 200, (Z)-3-(bicyclo[2.2.1]heptan-2-yl)-5-((3-(3-(4′,5′-bis(hydroxymethyl)-1H-1′,2′,3′-triazol-1-yl)propyl)-5-(3′,5′-dimethoxyphenyl)furan-2-yl)methylene)-2-thioxothiazolidin-4-one], the concentration for a half-maximal effect (EC50) in test [1] and in test [2] was less than 100 nM in each case.
